Data on 25 compounds can be found in US20230146675A1, “PYRIMIDO[5,4-d]PYRIMIDINE DERIVATIVES AS ENT INHIBITORS FOR THE TREATMENT OF CANCERS, AND COMBINATION THEREOF WITH ADENOSINE RECEPTOR ANTAGONISTS” (ITEOS BELGIUM SA, priority 2020, published 2023).

What is called pIC50 is the IC50 on a negative log10 scale, so that one unit is a factor of ten. The low end stands for a high IC50, the high end for a low IC50.

pIC50: −log10 of the molar value.

This assay has as its target T1, human ENT1 (Homo sapiens, UniProt Q99808).
T1 sequence (Q99808 1-456): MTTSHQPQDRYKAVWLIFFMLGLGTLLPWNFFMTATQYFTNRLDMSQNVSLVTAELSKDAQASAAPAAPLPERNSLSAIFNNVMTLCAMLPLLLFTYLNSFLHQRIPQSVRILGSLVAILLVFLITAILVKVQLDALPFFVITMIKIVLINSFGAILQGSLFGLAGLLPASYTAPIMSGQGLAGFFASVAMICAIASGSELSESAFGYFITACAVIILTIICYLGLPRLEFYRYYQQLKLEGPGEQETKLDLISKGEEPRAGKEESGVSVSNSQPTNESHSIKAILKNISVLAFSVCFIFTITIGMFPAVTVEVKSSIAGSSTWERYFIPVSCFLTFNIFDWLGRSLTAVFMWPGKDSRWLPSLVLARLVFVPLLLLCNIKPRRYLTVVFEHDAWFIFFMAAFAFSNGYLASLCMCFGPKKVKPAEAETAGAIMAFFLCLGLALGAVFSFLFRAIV
The experiment in a line: ENT1 binding assay (competition with Sahenta-DY647 on JAR cells). Also on record: JAR cells expressing ENT1 were bought from ATCC; host or cells: JAR cells. The conditions noted are these: binned IC50. Summed up:
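JAR cells were incubated with test compounds and the fluorescent ligand Sahenta-DY647 in competition. Plates were washed twice by centrifugation (4 min, 400 rcf, 4 °C). Binding potency was derived from the final fluorescence.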
In the case of `COCCN(CCOC)c1nc(N2CCC3(CC2)NC(=O)NC3=O)c2nc(N(CCOC)CCOC)nc(N3CCC(OC)CC3)c2n1` [Compound 117, 8-(2,6-bis(bis(2-methoxyethyl)amino)-8-(4-methoxypiperidin-1-yl)pyrimido[5,4-d]pyrimidin-4-yl)-1,3,8-triazaspiro[4.5]decane-2,4-dione], the pIC50 is 6.00 to 6.30. `COCCN(CCOC)c1nc(N2CCN(c3cccnc3)CC2)c2nc(N(CCOC)CCOC)nc(N3CCC(OC)CC3)c2n1` [Compound 118, N2,N2,N6,N6-tetrakis(2-methoxyethyl)-4-(4-methoxypiperidin-1-yl)-8-(4-(pyridin-3-yl)piperazin-1-yl)pyrimido[5,4-d]pyrimidine-2,6-diamine] showed a negative-log IC50 (pIC50) of 6.30 to 7.00. For `COCCN(CCOC)c1nc(N2CCN(c3ncccn3)CC2)c2nc(N(CCOC)CCOC)nc(N3CCC(OC)CC3)c2n1` [Compound 119, N2,N2,N6,N6-tetrakis(2-methoxyethyl)-4-(4-methoxypiperidin-1-yl)-8-(4-(pyrimidin-2-yl)piperazin-1-yl)pyrimido[5,4-d]pyrimidine-2,6-diamine], the negative-log IC50 (pIC50) was 6.00 to 6.30. The figure for `COCCN(CCOC)c1nc(N2CCN(c3cnccn3)CC2)c2nc(N(CCOC)CCOC)nc(N3CCC(OC)CC3)c2n1` [Compound 120, N2,N2,N6,N6-tetrakis(2-methoxyethyl)-4-(4-methoxypiperidin-1-yl)-8-(4-(pyrazin-2-yl)piperazin-1-yl)pyrimido[5,4-d]pyrimidine-2,6-diamine] is 6.00 to 6.30; for `COCCN(CCOC)c1nc(N2CCN(c3ncccc3N)CC2)c2nc(N(CCOC)CCOC)nc(N3CCC(OC)CC3)c2n1` [Compound 121, 4-(4-(3-aminopyridin-2-yl)piperazin-1-yl)-N2,N2,N6,N6-tetrakis(2-methoxyethyl)-8-(4-methoxypiperidin-1-yl)pyrimido[5,4-d]pyrimidine-2,6-diamine] it is 6.00 to 6.30. The figure for `COCCN(CCOC)c1nc(N2CCN(c3nccc(C)n3)CC2)c2nc(N(CCOC)CCOC)nc(N3CCC(OC)CC3)c2n1` [Compound 122, N2,N2,N6,N6-tetrakis(2-methoxyethyl)-4-(4-methoxypiperidin-1-yl)-8-(4-(4-methylpyrimidin-2-yl)piperazin-1-yl)pyrimido[5,4-d]pyrimidine-2,6-diamine] is 6.30 to 7.00; for `COCCN(CCOC)c1nc(N2CCN(c3nc(C)ns3)CC2)c2nc(N(CCOC)CCOC)nc(N3CCC(OC)CC3)c2n1` [Compound 123, N2,N2,N6,N6-tetrakis(2-methoxyethyl)-4-(4-methoxypiperidin-1-yl)-8-(4-(3-methyl-1,2,4-thiadiazol-5-yl)piperazin-1-yl)pyrimido[5,4-d]pyrimidine-2,6-diamine] it is 6.30 to 7.00; for `COCCN(CCOC)c1nc(N2CCN(c3ccc(C#N)cn3)CC2)c2nc(N(CCOC)CCOC)nc(N3CCC(OC)CC3)c2n1` [Compound 124, 6-(4-(2,6-bis(bis(2-methoxyethyl)amino)-8-(4-methoxypiperidin-1-yl)pyrimido[5,4-d]pyrimidin-4-yl)piperazin-1-yl)nicotinonitrile] it is 6.30 to 7.00. The figure for `COCCN(CCOC)c1nc(N2CCN(c3nccc(OC)n3)CC2)c2nc(N(CCOC)CCOC)nc(N3CCC(OC)CC3)c2n1` [Compound 125, N2,N2,N6,N6-tetrakis(2-methoxyethyl)-4-(4-methoxypiperidin-1-yl)-8-(4-(4-methoxypyrimidin-2-yl)piperazin-1-yl)pyrimido[5,4-d]pyrimidine-2,6-diamine] is 6.30 to 7.00.

Compound `CCNc1nc(N(CCOC)CCOC)nc2c(N3CCC(OC)CC3)nc(N(CCOC)CCOC)nc12` [Compound 126, N4-ethyl-N2,N2,N6,N6-tetrakis(2-methoxyethyl)-8-(4-methoxypiperidin-1-yl)pyrimido[5,4-d]pyrimidine-2,4,6-triamine] showed a negative-log IC50 (pIC50) of 6.00 to 6.30. As to `COCCN(CCOC)c1nc(N2CCC(OC)CC2)c2nc(N(CCOC)CCOC)nc(NCC(C)C)c2n1` [Compound 127, N4-isobutyl-N2,N2,N6,N6-tetrakis(2-methoxyethyl)-8-(4-methoxypiperidin-1-yl)pyrimido[5,4-d]pyrimidine-2,4,6-triamine], the pIC50 is 6.30 to 7.00.

As to `COCCNc1nc(N(CCOC)CCOC)nc2c(N3CCC(OC)CC3)nc(N(CCOC)CCOC)nc12` [Compound 128, N2,N2,N4,N6,N6-pentakis(2-methoxyethyl)-8-(4-methoxypiperidin-1-yl)pyrimido[5,4-d]pyrimidine-2,4,6-triamine], the pIC50 is 6.00 to 6.30. On to `COCCN(CCOC)c1nc(N2CCN(c3nc(C)no3)CC2)c2nc(N(CCOC)CCOC)nc(N3CCN(c4nc(C)no4)CC3)c2n1` [Compound 129, N2,N2,N6,N6-tetrakis(2-methoxyethyl)-4,8-bis(4-(3-methyl-1,2,4-oxadiazol-5-yl)piperazin-1-yl)pyrimido[5,4-d]pyrimidine-2,6-diamine], for which the pIC50 is 6.30 to 7.00. To `COCCN(CCOC)c1nc(N2CCN(c3nnc(C)o3)CC2)c2nc(N(CCOC)CCOC)nc(N3CCN(c4nnc(C)o4)CC3)c2n1` [Compound 130, N2,N2,N6,N6-tetrakis(2-methoxyethyl)-4,8-bis(4-(5-methyl-1,3,4-oxadiazol-2-yl)piperazin-1-yl)pyrimido[5,4-d]pyrimidine-2,6-diamine] belongs 6.00 to 6.30. To `COCCN(CCOC)c1nc(N2CCN(c3ncn(C)n3)CC2)c2nc(N(CCOC)CCOC)nc(N3CCN(c4ncn(C)n4)CC3)c2n1` [Compound 131, N2,N2,N6,N6-tetrakis(2-methoxyethyl)-4,8-bis(4-(1-methyl-1H-1,2,4-triazol-3-yl)piperazin-1-yl)pyrimido[5,4-d]pyrimidine-2,6-diamine] belongs 6.30 to 7.00; to `CCN(CCN1CCCC1)c1nc(N2CCC(OC)CC2)c2nc(N(CCOC)CCOC)nc(N3CCC(OC)CC3)c2n1` [Compound 132, N2-ethyl-N6,N6-bis(2-methoxyethyl)-4,8-bis(4-methoxypiperidin-1-yl)-N2-(2-(pyrrolidin-1-yl)ethyl)pyrimido[5,4-d]pyrimidine-2,6-diamine], 6.00 to 6.30.

On to `CCN(CCN1CCCCC1)c1nc(N2CCC(OC)CC2)c2nc(N(CCOC)CCOC)nc(N3CCC(OC)CC3)c2n1` [Compound 133, N2-ethyl-N6,N6-bis(2-methoxyethyl)-4,8-bis(4-methoxypiperidin-1-yl)-N2-(2-(piperidin-1-yl)ethyl)pyrimido[5,4-d]pyrimidine-2,6-diamine], for which the pIC50 was 6.00 to 6.30. To `COCCN(CCOC)c1nc(N2CCC(OC)CC2)c2nc(NCCCn3ccnc3)nc(N3CCC(OC)CC3)c2n1` [Compound 134, N2-(3-(1H-imidazol-1-yl)propyl)-N6,N6-bis(2-methoxyethyl)-4,8-bis(4-methoxypiperidin-1-yl)pyrimido[5,4-d]pyrimidine-2,6-diamine] belongs 6.00 to 6.30; to `COCCN(CCOC)c1nc(N2CCN(c3nnc(C)o3)CC2)c2nc(N(CCOC)CCOC)nc(N3CCC(OC)CC3)c2n1` [Compound 135, N2,N2,N6,N6-tetrakis(2-methoxyethyl)-4-(4-methoxypiperidin-1-yl)-8-(4-(5-methyl-1,3,4-oxadiazol-2-yl)piperazin-1-yl)pyrimido[5,4-d]pyrimidine-2,6-diamine], 6.00 to 6.30.

For `COCCN(CCOC)c1nc(N2CCC(CO)C2)c2nc(N(CCOC)CCOC)nc(N3CCC(OC)CC3)c2n1` (stereo not shown) [Compound 136, (1-(2,6-bis(bis(2-methoxyethyl)amino)-8-(4-methoxypiperidin-1-yl)pyrimido[5,4-d]pyrimidin-4-yl)pyrrolidin-3-yl)methanol], the pIC50 was more than 7.00. The figure for `COCCN(CCOC)c1nc(N2CCC(OC)CC2)c2nc(N(CCOC)CCOC)nc(NCc3ccc(Cl)c(Cl)c3)c2n1` [Compound 137, N4-(3,4-dichlorobenzyl)-N2,N2,N6,N6-tetrakis(2-methoxyethyl)-8-(4-methoxypiperidin-1-yl)pyrimido[5,4-d]pyrimidine-2,4,6-triamine] is more than 7.00; for `COCCN(CCOC)c1nc(N2CCC(OC)CC2)c2nc(N(CCOC)CCOC)nc(NCc3ccc(F)c(Cl)c3)c2n1` [Compound 138, N4-(3-chloro-4-fluorobenzyl)-N2,N2,N6,N6-tetrakis(2-methoxyethyl)-8-(4-methoxypiperidin-1-yl)pyrimido[5,4-d]pyrimidine-2,4,6-triamine] it is more than 7.00; for `COCCN(CCOC)c1nc(N2CCC(OC)CC2)c2nc(N(CCOC)CCOC)nc(NCc3ccc(F)c(F)c3)c2n1` [Compound 139, N4-(3,4-difluorobenzyl)-N2,N2,N6,N6-tetrakis(2-methoxyethyl)-8-(4-methoxypiperidin-1-yl)pyrimido[5,4-d]pyrimidine-2,4,6-triamine] it is more than 7.00. Take `COCCN(CCOC)c1nc(N2CCC(OC)CC2)c2nc(N(CCOC)CCOC)nc(NCc3ccc(C#N)cc3)c2n1` [Compound 140, 4-(((2,6-bis(bis(2-methoxyethyl)amino)-8-(4-methoxypiperidin-1-yl)pyrimido[5,4-d]pyrimidin-4-yl)amino)methyl)benzonitrile]: the pIC50 was 6.30 to 7.00.

The compound `COCCN(CCOC)c1nc(N2CCC(OC)CC2)c2nc(N(CCOC)CCOC)nc(NCc3cccc(Cl)c3)c2n1` [Compound 141, N4-(3-chlorobenzyl)-N2,N2,N6,N6-tetrakis(2-methoxyethyl)-8-(4-methoxypiperidin-1-yl)pyrimido[5,4-d]pyrimidine-2,4,6-triamine] showed a pIC50 of more than 7.00.
